This is an account of results in patent US9708334B2, “Substituted 2,4,5,6-tetrahydropyrrolo[3,4-c]pyrazole and 4,5,6,7-tetrahydro-2H-pyrazolo[4,3-c]pyridine compounds as GlyT1 inhibitors” (DART NEUROSCIENCE (CAYMAN) LTD., priority 2014, dated 2017).

Molecules are shown by their SMILES.

The target of the assay is T1, GlyT1 (Homo sapiens, UniProt P48067).
T1 construct: expressed in transfected cells
T1 sequence (P48067 1-706): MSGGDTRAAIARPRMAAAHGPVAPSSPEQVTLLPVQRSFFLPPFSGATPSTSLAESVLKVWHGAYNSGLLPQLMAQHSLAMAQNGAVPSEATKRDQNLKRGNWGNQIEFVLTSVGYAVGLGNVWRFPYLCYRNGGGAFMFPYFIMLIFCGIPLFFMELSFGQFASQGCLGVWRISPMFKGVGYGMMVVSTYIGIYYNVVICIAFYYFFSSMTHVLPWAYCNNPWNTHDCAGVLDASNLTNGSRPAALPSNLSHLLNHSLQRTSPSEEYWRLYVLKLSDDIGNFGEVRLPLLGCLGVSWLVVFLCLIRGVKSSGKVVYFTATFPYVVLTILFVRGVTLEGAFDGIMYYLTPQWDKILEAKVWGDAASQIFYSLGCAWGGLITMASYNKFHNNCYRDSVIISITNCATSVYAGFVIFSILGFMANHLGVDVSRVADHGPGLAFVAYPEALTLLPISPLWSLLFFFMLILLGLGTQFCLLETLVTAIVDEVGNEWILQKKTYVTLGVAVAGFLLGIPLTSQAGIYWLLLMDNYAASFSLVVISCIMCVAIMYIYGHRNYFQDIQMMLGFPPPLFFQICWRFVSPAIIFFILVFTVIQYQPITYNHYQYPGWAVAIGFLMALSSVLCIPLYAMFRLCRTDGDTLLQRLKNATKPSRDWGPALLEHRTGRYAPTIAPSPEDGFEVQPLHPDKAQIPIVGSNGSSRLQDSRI
The assay can be described thus: Glycine Transporter 1 (GlyT1) uptake assay, scintillation proximity assay of [14C]-glycine uptake. It counts as cell-based. Conditions: SPA, four parameter logistic fit, read-out: GlyT1 (pIC50) (converted). Put shortly:
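IC50 values derive from four-parameter logistic curves fitted to dose-response data. Uptake of [14C]-glycine measured in scintillation proximity format.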
As to `CS(=O)(=O)c1ccc(-c2cccc(F)c2)c(C(=O)N2Cc3cn(-c4cccnc4)nc3C2)c1` [Example 141, 3-{5-[2-(3-Fluorophenyl)-5-methanesulfonylbenzoyl]-2H 4H 5H 6H-pyrrolo[3,4-c]pyrazol-2-yl}pyridine], the IC50 is below 100 nM. As for `CS(=O)(=O)c1ccc(-c2cccc(F)c2)c(C(=O)N2Cc3cn(-c4ccncc4)nc3C2)c1` [Example 142, 4-{5-[2-(3-Fluorophenyl)-5-methanesulfonylbenzoyl]-2H 4H 5H 6H-pyrrolo[3,4-c]pyrazol-2-yl}pyridine], the figure is below 100 nM. For `CCc1cc(-n2cc3c(n2)CN(C(=O)c2cc(S(C)(=O)=O)ccc2-c2cccc(F)c2)C3)ccn1` [Example 143, 2-Ethyl-4-{5-[2-(3-fluorophenyl)-5-methanesulfonylbenzoyl]-2H 4H 5H 6H-pyrrolo[3,4-c]pyrazol-2-yl}pyridine], the IC50 is below 100 nM. For `C[C@H](Oc1ccc(S(=O)(=O)CC2CC2)cc1C(=O)N1Cc2cn(-c3ccccc3)nc2C1)C(F)(F)F` [Example 144, 5-(5-Cyclopropylmethanesulfonyl-2-{[(2S)-1 1 1-trifluoropropan-2-yl]oxy}benzoyl)-2-phenyl-2H 4H 5H 6H-pyrrolo[3,4-c]pyrazole], the IC50 is above 10000 nM. As for `Cc1cccc(-n2cc3c(n2)CN(C(=O)c2cc(S(=O)(=O)CC4CC4)ccc2O[C@@H](C)C(F)(F)F)C3)c1` [Example 145, 5-(5-Cyclopropylmethanesulfonyl-2-{[(2S)-1 1 1-trifluoropropan-2-yl]oxy}benzoyl)-2-(3-methylphenyl)-2H 4H 5H 6H-pyrrolo[3,4-c]pyrazole], the figure is 1000 to 10000 nM; as for `C[C@H](Oc1ccc(S(C)(=O)=O)cc1C(=O)N1Cc2cn(-c3cccc(Cl)c3F)nc2C1)C(F)(F)F` [Example 146, 2-(3-Chloro-2-fluorophenyl)-5-(5-methanesulfonyl-2-{[(2S)-1 1 1-trifluoropropan-2-yl]oxy}benzoyl)-2H 4H 5H 6H-pyrrolo[3,4-c]pyrazole], below 100 nM. Regarding `C[C@H](Oc1ccc(S(C)(=O)=O)cc1C(=O)N1Cc2cn(-c3cccc(F)c3Cl)nc2C1)C(F)(F)F` [Example 147, 2-(2-Chloro-3-fluorophenyl)-5-(5-methanesulfonyl-2-{[(2S)-1 1 1-trifluoropropan-2-yl]oxy}benzoyl)-2H 4H 5H 6H-pyrrolo[3,4-c]pyrazole], the IC50 is below 100 nM. As for `CC(C)Oc1ccc(S(C)(=O)=O)cc1C(=O)N1Cc2cn(-c3cccc(Cl)c3F)nc2C1` [Example 148, 2-(3-Chloro-2-fluorophenyl)-5-[5-methanesulfonyl-2-(propan-2-yloxy)benzoyl]-2H 4H 5H 6H-pyrrolo[3,4-c]pyrazole], the IC50 is below 100 nM. For `CC(C)Oc1ccc(S(C)(=O)=O)cc1C(=O)N1Cc2cn(-c3cccc(F)c3Cl)nc2C1` [Example 149, 2-(2-Chloro-3-fluorophenyl)-5-[5-methanesulfonyl-2-(propan-2-yloxy)benzoyl]-2H 4H 5H 6H-pyrrolo[3,4-c]pyrazole], the IC50 is below 100 nM. With `CCS(=O)(=O)c1ccc(O[C@@H](C)C(F)(F)F)c(C(=O)N2Cc3cn(-c4cccc(Cl)c4F)nc3C2)c1` [Example 150, 2-(3-Chloro-2-fluorophenyl)-5-[5-(ethanesulfonyl)-2-{[(2S)-1 1 1-trifluoropropan-2-yl]oxy}benzoyl]-2H 4H 5H 6H-pyrrolo[3,4-c]pyrazole], the IC50 is below 100 nM.

Turning to `CCS(=O)(=O)c1ccc(O[C@@H](C)C(F)(F)F)c(C(=O)N2Cc3cn(-c4cccc(F)c4Cl)nc3C2)c1` [Example 151, 2-(2-Chloro-3-fluorophenyl)-5-[5-(ethanesulfonyl)-2-{[(2S)-1 1 1-trifluoropropan-2-yl]oxy}benzoyl]-2H 4H 5H 6H-pyrrolo[3,4-c]pyrazole], the IC50 is below 100 nM. Regarding `CS(=O)(=O)c1ccc(-c2cccc(F)c2)c(C(=O)N2Cc3cn(-c4ccccn4)nc3C2)c1` [Example 152, 2-{5-[2-(3-Fluorophenyl)-5-methanesulfonylbenzoyl]-2H 4H 5H 6H-pyrrolo[3,4-c]pyrazol-2-yl}pyridine], the IC50 was below 100 nM. The value for `CC(Oc1ccc(C#N)c(Cl)c1C(=O)N1CCc2nn(-c3cncc(F)c3)cc2C1)C(F)(F)F` (stereo not drawn) [Example 153, 2-Chloro-3-[2-(5-fluoropyridin-3-yl)-2H 4H 5H 6H 7H-pyrazolo[4,3-c]pyridine-5-carbonyl]-4-[(1 1 1-trifluoropropan-2-yl)oxy]benzonitrile] was below 100 nM; that for `COc1c(C#N)ccc(OC(C)C(F)(F)F)c1C(=O)N1CCc2nn(-c3cncc(F)c3)cc2C1` (stereo not drawn) [Example 154, 3-[2-(5-Fluoropyridin-3-yl)-2H 4H 5H 6H 7H-pyrazolo[4,3-c]pyridine-5-carbonyl]-2-methoxy-4-[(1 1 1-trifluoropropan-2-yl)oxy]benzonitrile] was below 100 nM; that for `N#Cc1ccc(OCC(F)(F)F)c(C(=O)N2CCc3nn(-c4ccncc4)cc3C2)c1Cl` [Example 155, 2-Chloro-3-[2-(pyridin-4-yl)-2H 4H 5H 6H 7H-pyrazolo[4,3-c]pyridine-5-carbonyl]-4-(2 2 2-trifluoroethoxy)benzonitrile] was 100 to 1000 nM. The value for `COc1c(C#N)ccc(OCC(F)(F)F)c1C(=O)N1CCc2nn(-c3ccncc3)cc2C1` [Example 156, 2-Methoxy-3-[2-(pyridin-4-yl)-2H 4H 5H 6H 7H-pyrazolo[4,3-c]pyridine-5-carbonyl]-4-(2 2 2-trifluoroethoxy)benzonitrile] was below 100 nM. In the case of `Cn1ncc2c1CN(C(=O)c1cc(S(C)(=O)=O)ccc1OCC1CC1)C2` [Example 157, 5-[2-(Cyclopropylmethoxy)-5-methanesulfonylbenzoyl]-1-methyl-1H 4H 5H 6H-pyrrolo[3,4-c]pyrazole], the IC50 was above 10000 nM. `Cn1ncc2c1CCN(C(=O)c1cc(S(C)(=O)=O)ccc1OCC1CC1)C2` [Example 158, 5-[2-(Cyclopropylmethoxy)-5-methanesulfonylbenzoyl]-1-methyl-1H 4H 5H 6H 7H-pyrazolo[4,3-c]pyridine]: the IC50 is above 10000 nM. For `CS(=O)(=O)c1ccc(OCC2CC2)c(C(=O)N2Cc3cnn(-c4cccc(C(F)(F)F)c4)c3C2)c1` [Example 159, 5-[2-(Cyclopropylmethoxy)-5-methanesulfonylbenzoyl]-1-[3-(trifluoromethyl)phenyl]-1H 4H 5H 6H-pyrrolo[3,4-c]pyrazole], the IC50 is 1000 to 10000 nM. Turning to `CS(=O)(=O)c1ccc(OCC2CC2)c(C(=O)N2CCc3c(cnn3-c3cccc(C(F)(F)F)c3)C2)c1` [Example 160, 5-[2-(Cyclopropylmethoxy)-5-methanesulfonylbenzoyl]-1-[3-(trifluoromethyl)phenyl]-1H 4H 5H 6H 7H-pyrazolo[4,3-c]pyridine], the IC50 was 1000 to 10000 nM. As for `CC(Oc1ccc(S(C)(=O)=O)cc1C(=O)N1CCc2c(cnn2C)C1)C(F)(F)F` (stereo not drawn) [Example 161, 5-{5-Methanesulfonyl-2-[(1 1 1-trifluoropropan-2-yl)oxy]benzoyl}-1-methyl-1H 4H 5H 6H 7H-pyrazolo[4,3-c]pyridine], the IC50 was 1000 to 10000 nM. The value for `CC(Oc1ccc(S(C)(=O)=O)cc1C(=O)N1CCc2c(cnn2-c2cccc(C(F)(F)F)c2)C1)C(F)(F)F` (stereo not drawn) [Example 162, 5-{5-Methanesulfonyl-2-[(1 1 1-trifluoropropan-2-yl)oxy]benzoyl}-1-[3-(trifluoromethyl)phenyl]-1H 4H 5H 6H 7H-pyrazolo[4,3-c]pyridine] was 100 to 1000 nM; that for `CC(Oc1ccc(S(C)(=O)=O)cc1C(=O)N1CCc2nn(-c3ccccc3)cc2C1)C(F)(F)F` (stereo not drawn) [Example 163, 5-{5-Methanesulfonyl-2-[(1 1 1-trifluoropropan-2-yl)oxy]benzoyl}-2-phenyl-2H 4H 5H 6H 7H-pyrazolo[4,3-c]pyridine] was 100 to 1000 nM. With `CC(Oc1ccc(S(C)(=O)=O)cc1C(=O)N1CCc2c(cnn2-c2ccccc2)C1)C(F)(F)F` (stereo not drawn) [Example 164, 5-{5-Methanesulfonyl-2-[(1 1 1-trifluoropropan-2-yl)oxy]benzoyl}-1-phenyl-1H 4H 5H 6H 7H-pyrazolo[4,3-c]pyridine], the IC50 is 100 to 1000 nM. Take `CS(=O)(=O)c1ccc(N2CCCCC2)c(C(=O)N2CCc3c(c(C(F)(F)F)nn3-c3ccccc3)C2)c1` [Example 165, 1-{4-Methanesulfonyl-2-[1-phenyl-3-(trifluoromethyl)-1H 4H 5H 6H 7H-pyrazolo[4,3-c]pyridine-5-carbonyl]phenyl}piperidine]: the IC50 was 1000 to 10000 nM. On to `Cc1nn(-c2ccccc2)c2c1CN(C(=O)c1cc(S(C)(=O)=O)ccc1N1CCCCC1)CC2` [Example 166, 1-(4-Methanesulfonyl-2-{3-methyl-1-phenyl-1H 4H 5H 6H 7H-pyrazolo[4,3-c]pyridine-5-carbonyl}phenyl)piperidine], for which the IC50 is 100 to 1000 nM. In the case of `Cc1c2c(nn1-c1ccccc1)CCN(C(=O)c1cc(S(C)(=O)=O)ccc1N1CCCCC1)C2` [Example 167, 1-(4-Methanesulfonyl-2-{3-methyl-2-phenyl-2H 4H 5H 6H 7H-pyrazolo[4,3-c]pyridine-5-carbonyl}phenyl)piperidine], the IC50 is 100 to 1000 nM.
